System: SW620
Assay: cell viability relative to vehicle (resazurin, 96 h); higher = more viable
Method: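 SW620 WT or MTHFD2-/- cells were treated for 96 h with a compound dilution series (log10 M) in RPMI with normal or dialysed FBS. Viability was read by resazurin and is given as % of vehicle.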

CN(Cc1cnc2nc(N)nc(N)c2n1)c1ccc(C(=O)N[C@@H](CCC(=O)O)C(=O)O)cc1 [methotrexate]
Details | cell viability [%]
log10 compound concentration (M): -5, supplement / serum: Hypoxanthine + AICAr 10μM, base medium: RPMI + dialysed FBS | 5.12
log10 compound concentration (M): -5, supplement / serum: Hypoxanthine + AICAr 30μM, base medium: RPMI + dialysed FBS | 4.87
log10 compound concentration (M): -5, supplement / serum: Hypoxanthine + AICAr 50μM, base medium: RPMI + dialysed FBS | 5.34
log10 compound concentration (M): -5, supplement / serum: Hypoxanthine + AICAr 100μM, base medium: RPMI + dialysed FBS | 5.12
log10 compound concentration (M): -5, supplement / serum: Hypoxanthine, base medium: RPMI + dialysed FBS | 4.67
log10 compound concentration (M): -5, supplement / serum: RPMI + Dialyzed FBS + 50μM Hypoxanthine, base medium: RPMI-1640 | 6.47
log10 compound concentration (M): -5, supplement / serum: RPMI + Dialyzed FBS, base medium: RPMI-1640 | 5.07
log10 compound concentration (M): -5, supplement / serum: RPMI + Normal FBS, base medium: RPMI-1640 | 19.1
log10 compound concentration (M): -5, supplement / serum: Vehicle, base medium: RPMI + dialysed FBS | 4.01
log10 compound concentration (M): -5.47712, supplement / serum: Hypoxanthine + AICAr 10μM, base medium: RPMI + dialysed FBS | 5.68
log10 compound concentration (M): -5.47712, supplement / serum: Hypoxanthine + AICAr 30μM, base medium: RPMI + dialysed FBS | 4.86
log10 compound concentration (M): -5.47712, supplement / serum: Hypoxanthine + AICAr 50μM, base medium: RPMI + dialysed FBS | 6.17
log10 compound concentration (M): -5.47712, supplement / serum: Hypoxanthine + AICAr 100μM, base medium: RPMI + dialysed FBS | 5.44
log10 compound concentration (M): -5.47712, supplement / serum: Hypoxanthine, base medium: RPMI + dialysed FBS | 5.19
log10 compound concentration (M): -5.47712, supplement / serum: RPMI + Dialyzed FBS + 50μM Hypoxanthine, base medium: RPMI-1640 | 7.16
log10 compound concentration (M): -5.47712, supplement / serum: RPMI + Dialyzed FBS, base medium: RPMI-1640 | 5.32
log10 compound concentration (M): -5.47712, supplement / serum: RPMI + Normal FBS, base medium: RPMI-1640 | 22.3
log10 compound concentration (M): -5.47712, supplement / serum: Vehicle, base medium: RPMI + dialysed FBS | 3.96
log10 compound concentration (M): -5.95424, supplement / serum: Hypoxanthine + AICAr 10μM, base medium: RPMI + dialysed FBS | 6.05
log10 compound concentration (M): -5.95424, supplement / serum: Hypoxanthine + AICAr 30μM, base medium: RPMI + dialysed FBS | 4.88
log10 compound concentration (M): -5.95424, supplement / serum: Hypoxanthine + AICAr 50μM, base medium: RPMI + dialysed FBS | 6.61
log10 compound concentration (M): -5.95424, supplement / serum: Hypoxanthine + AICAr 100μM, base medium: RPMI + dialysed FBS | 6.46
log10 compound concentration (M): -5.95424, supplement / serum: Hypoxanthine, base medium: RPMI + dialysed FBS | 4.87
log10 compound concentration (M): -5.95424, supplement / serum: RPMI + Dialyzed FBS + 50μM Hypoxanthine, base medium: RPMI-1640 | 7.47
log10 compound concentration (M): -5.95424, supplement / serum: RPMI + Dialyzed FBS, base medium: RPMI-1640 | 5.35
log10 compound concentration (M): -5.95424, supplement / serum: RPMI + Normal FBS, base medium: RPMI-1640 | 14.7
log10 compound concentration (M): -5.95424, supplement / serum: Vehicle, base medium: RPMI + dialysed FBS | 4.17
log10 compound concentration (M): -6.43136, supplement / serum: Hypoxanthine + AICAr 10μM, base medium: RPMI + dialysed FBS | 6.29
log10 compound concentration (M): -6.43136, supplement / serum: Hypoxanthine + AICAr 30μM, base medium: RPMI + dialysed FBS | 5.47
log10 compound concentration (M): -6.43136, supplement / serum: Hypoxanthine + AICAr 50μM, base medium: RPMI + dialysed FBS | 7.05
log10 compound concentration (M): -6.43136, supplement / serum: Hypoxanthine + AICAr 100μM, base medium: RPMI + dialysed FBS | 6.81
log10 compound concentration (M): -6.43136, supplement / serum: Hypoxanthine, base medium: RPMI + dialysed FBS | 5.56
log10 compound concentration (M): -6.43136, supplement / serum: RPMI + Dialyzed FBS + 50μM Hypoxanthine, base medium: RPMI-1640 | 7.77
log10 compound concentration (M): -6.43136, supplement / serum: RPMI + Dialyzed FBS, base medium: RPMI-1640 | 4.63
log10 compound concentration (M): -6.43136, supplement / serum: RPMI + Normal FBS, base medium: RPMI-1640 | 17
log10 compound concentration (M): -6.43136, supplement / serum: Vehicle, base medium: RPMI + dialysed FBS | 4.16
log10 compound concentration (M): -6.90849, supplement / serum: Hypoxanthine + AICAr 10μM, base medium: RPMI + dialysed FBS | 7.03
log10 compound concentration (M): -6.90849, supplement / serum: Hypoxanthine + AICAr 30μM, base medium: RPMI + dialysed FBS | 5.61
log10 compound concentration (M): -6.90849, supplement / serum: Hypoxanthine + AICAr 50μM, base medium: RPMI + dialysed FBS | 6.93

Source: the supplement of paper PMC10132981, “Formate overflow drives toxic folate trapping in MTHFD1 inhibited cancer cells” (Nature Metabolism, 2023)
